The results in this text go back to the supplement of paper PMC10307832.

What all share (test): relative viability (nuclei count vs DMSO), 5 days (fraction); higher = more cells survive
Compound in the test “Salubrinal + AZD7762”: O=C(/C=C/c1ccccc1)NC(NC(=S)Nc1cccc2cccnc12)C(Cl)(Cl)Cl [Salubrinal] + NC(=O)Nc1cc(-c2cccc(F)c2)sc1C(=O)N[C@H]1CCCNC1 [AZD7762] (partner 0.2 µM)
The gist of the method: (§1)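 Lung cancer cell lines, seeded in 1536-well plates, were treated the following day by pin tool with a single drug or with five library-drug doses (not always all listed) in √10 steps on top of a fixed anchor-drug dose. Cells were fixed and nuclei stained in one step after 5 days, and nuclei were counted. Relative viability is the nuclei count for treated wells divided by that for vehicle wells, reported as medians of duplicate plates.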

Compound in the test “Salubrinal + Bortezomib”: O=C(/C=C/c1ccccc1)NC(NC(=S)Nc1cccc2cccnc12)C(Cl)(Cl)Cl [Salubrinal] + CC(C)C[C@H](NC(=O)[C@H](Cc1ccccc1)NC(=O)c1cnccn1)B(O)O [Bortezomib] (partner 0.002 µM)
Put shortly:
as §1

Compound in test [1]: Cc1ccc2nc(NCCN)c3ncc(C)n3c2c1 + C[C@@H](Oc1cc(-c2cnn(C3CCNCC3)c2)cnc1N)c1c(Cl)ccc(F)c1Cl [Crizotinib] (partner 1 µM)
The gist of the method: as §1

Compound in test [2]: Cc1ccc2nc(NCCN)c3ncc(C)n3c2c1 + CC(C)C[C@H](NC(=O)[C@H](Cc1ccccc1)NC(=O)c1cnccn1)B(O)O [Bortezomib] (partner 0.002 µM)
The gist of the method: as §1

On to NCI-H1648, for which the relative viability in the test with Salubrinal + AZD7762 (first compound 0.08 µM) is 0.733; in the test with Salubrinal + AZD7762 (first compound 0.253 µM), 0.62; with Salubrinal + AZD7762 (first compound 0.8 µM), 0.705; in the test with Salubrinal + AZD7762 (first compound 2.53 µM), 0.654; in the test with Salubrinal + AZD7762 (first compound 8 µM), 0.575.
Turning to NCI-H1650, the relative viability with Salubrinal + Bortezomib (first compound 0.08 µM) stood at 0.217; with Salubrinal + Bortezomib (first compound 0.253 µM), 0.227; in the test with Salubrinal + Bortezomib (first compound 0.8 µM) it was 0.256; with Salubrinal + Bortezomib (first compound 2.53 µM), 0.173; with Salubrinal + Bortezomib (first compound 8 µM) it was 0.243; in test [1] (first compound 0.04 µM), 0.965. In addition, the relative viability was 0.969 in test [1] (first compound 0.1265 µM); 0.995 in test [1] (first compound 0.4 µM); 0.97 in test [1] (first compound 1.265 µM); 0.571 in test [1] (first compound 4 µM); 0.203 in test [2] (first compound 0.04 µM); 0.19 in test [2] (first compound 0.1265 µM). Besides, the relative viability in test [2] (first compound 0.4 µM) amounted to 0.206; in test [2] (first compound 1.265 µM), 0.182; in test [2] (first compound 4 µM), 0.202.
Take NCI-H1793: the relative viability with Salubrinal + AZD7762 (first compound 0.08 µM) came to 0.676; with Salubrinal + AZD7762 (first compound 0.253 µM), 0.407; with Salubrinal + AZD7762 (first compound 0.8 µM), 0.505; with Salubrinal + AZD7762 (first compound 2.53 µM) it was 0.366; with Salubrinal + AZD7762 (first compound 8 µM), 0.276.
Consider NCI-H1944, for which the relative viability in test [1] (first compound 0.04 µM) came out at 1.05; in test [1] (first compound 0.1265 µM), 1.18; in test [1] (first compound 0.4 µM), 1.09; in test [1] (first compound 1.265 µM) it was 1.19; in test [1] (first compound 4 µM), 1.09; in the test with Salubrinal + AZD7762 (first compound 0.08 µM) it was 0.563. The relative viability in the test with Salubrinal + AZD7762 (first compound 0.253 µM) was 0.471; in the test with Salubrinal + AZD7762 (first compound 0.8 µM), 0.472; with Salubrinal + AZD7762 (first compound 2.53 µM) it was 0.433; with Salubrinal + AZD7762 (first compound 8 µM) it was 0.596.
Regarding NCI-H2009, the relative viability with Salubrinal + Bortezomib (first compound 0.08 µM) worked out at 1.07; in the test with Salubrinal + Bortezomib (first compound 0.253 µM), 1.05; with Salubrinal + Bortezomib (first compound 0.8 µM) it was 1.01; with Salubrinal + Bortezomib (first compound 2.53 µM), 1.01; in the test with Salubrinal + Bortezomib (first compound 8 µM) it was 0.771; in test [1] (first compound 0.04 µM) it was 1.06. The relative viability in test [1] (first compound 0.1265 µM) was found to be 1.06; in test [1] (first compound 0.4 µM), 1.14; in test [1] (first compound 1.265 µM) it was 1.04; in test [1] (first compound 4 µM), 0.784; in test [2] (first compound 0.04 µM), 1.06; in test [2] (first compound 0.1265 µM), 1.01. Besides, the values for the relative viability in test [2] (first compound 0.4 µM), in test [2] (first compound 1.265 µM) and in test [2] (first compound 4 µM) were 0.987, 0.97 and 0.875, respectively.
NCI-H2023: the relative viability came to 1.2 with Salubrinal + Bortezomib (first compound 0.08 µM); 1.03 with Salubrinal + Bortezomib (first compound 0.253 µM); 0.967 in the test with Salubrinal + Bortezomib (first compound 0.8 µM); 1.02 with Salubrinal + Bortezomib (first compound 2.53 µM); 0.858 with Salubrinal + Bortezomib (first compound 8 µM); 0.702 in test [1] (first compound 0.04 µM). Further, the relative viability in test [1] (first compound 0.1265 µM) stood at 0.652; in test [1] (first compound 0.4 µM), 0.733; in test [1] (first compound 1.265 µM) it was 0.767; in test [1] (first compound 4 µM) it was 0.414; in test [2] (first compound 0.04 µM), 1.17; in test [2] (first compound 0.1265 µM) it was 1.01. Besides, the relative viability stood at 0.938 in test [2] (first compound 0.4 µM), 1.16 in test [2] (first compound 1.265 µM) and 0.858 in test [2] (first compound 4 µM).
Take NCI-H2170: the relative viability in test [1] (first compound 0.04 µM) was determined as 1.17; in test [1] (first compound 0.1265 µM), 1.14; in test [1] (first compound 0.4 µM), 1.1; in test [1] (first compound 1.265 µM) it was 1.21; in test [1] (first compound 4 µM), 1.06; with Salubrinal + AZD7762 (first compound 0.08 µM) it was 0.953. Also, the relative viability came out at 0.942 with Salubrinal + AZD7762 (first compound 0.253 µM), 0.995 with Salubrinal + AZD7762 (first compound 0.8 µM), 0.792 with Salubrinal + AZD7762 (first compound 2.53 µM) and 0.878 with Salubrinal + AZD7762 (first compound 8 µM).
As to NCI-H2228, the relative viability in the test with Salubrinal + Bortezomib (first compound 0.08 µM) is 1.08; with Salubrinal + Bortezomib (first compound 0.253 µM) it was 1.18; in the test with Salubrinal + Bortezomib (first compound 0.8 µM), 1.26; with Salubrinal + Bortezomib (first compound 2.53 µM), 0.983; with Salubrinal + Bortezomib (first compound 8 µM), 0.876; in test [1] (first compound 0.04 µM) it was 0.51. In addition, the relative viability worked out at 0.436 in test [1] (first compound 0.1265 µM); 0.53 in test [1] (first compound 0.4 µM); 0.346 in test [1] (first compound 1.265 µM); 0.405 in test [1] (first compound 4 µM); 1.11 in test [2] (first compound 0.04 µM); 0.992 in test [2] (first compound 0.1265 µM). Also, the relative viability in test [2] (first compound 0.4 µM) is 1.16; in test [2] (first compound 1.265 µM) it was 1.13; in test [2] (first compound 4 µM) it was 0.907.
For the cell line NCI-H2342, the relative viability amounted to 0.445 with Salubrinal + AZD7762 (first compound 0.08 µM); 0.503 in the test with Salubrinal + AZD7762 (first compound 0.253 µM); 0.552 in the test with Salubrinal + AZD7762 (first compound 0.8 µM); 0.517 with Salubrinal + AZD7762 (first compound 2.53 µM); 0.552 in the test with Salubrinal + AZD7762 (first compound 8 µM).
In the case of SK-LU-1, the relative viability came out at 1 with Salubrinal + Bortezomib (first compound 0.08 µM); 1.07 with Salubrinal + Bortezomib (first compound 0.253 µM); 1.63 in the test with Salubrinal + Bortezomib (first compound 0.8 µM); 1.21 in the test with Salubrinal + Bortezomib (first compound 2.53 µM); 0.941 with Salubrinal + Bortezomib (first compound 8 µM); 0.926 in test [1] (first compound 0.04 µM). Also, the relative viability amounted to 0.937 in test [1] (first compound 0.1265 µM); 1.01 in test [1] (first compound 0.4 µM); 0.852 in test [1] (first compound 1.265 µM); 0.83 in test [1] (first compound 4 µM); 1.39 in test [2] (first compound 0.04 µM); 1.28 in test [2] (first compound 0.1265 µM). Besides, the relative viability in test [2] (first compound 0.4 µM) is 0.989; in test [2] (first compound 1.265 µM), 1.29; in test [2] (first compound 4 µM), 1.02.
Take SK-MES-1: the relative viability in test [1] (first compound 0.04 µM) was 0.924; in test [1] (first compound 0.1265 µM) it was 0.939; in test [1] (first compound 0.4 µM), 0.911; in test [1] (first compound 1.265 µM), 1.03; in test [1] (first compound 4 µM), 0.912.
Regarding SW 900, the relative viability in the test with Salubrinal + AZD7762 (first compound 0.08 µM) turned out to be 0.612; with Salubrinal + AZD7762 (first compound 0.253 µM), 0.579; with Salubrinal + AZD7762 (first compound 0.8 µM), 0.687; in the test with Salubrinal + AZD7762 (first compound 2.53 µM) it was 0.585; with Salubrinal + AZD7762 (first compound 8 µM) it was 0.421.
Turning to SW 1573, the relative viability with Salubrinal + Bortezomib (first compound 0.08 µM) came out at 1.36; with Salubrinal + Bortezomib (first compound 0.253 µM) it was 0.779; with Salubrinal + Bortezomib (first compound 0.8 µM), 1.27; in the test with Salubrinal + Bortezomib (first compound 2.53 µM) it was 0.834; with Salubrinal + Bortezomib (first compound 8 µM) it was 0.982; in test [1] (first compound 0.04 µM), 0.924. Moreover, the relative viability turned out to be 0.792 in test [1] (first compound 0.1265 µM); 0.704 in test [1] (first compound 0.4 µM); 0.895 in test [1] (first compound 1.265 µM); 0.659 in test [1] (first compound 4 µM); 0.978 in test [2] (first compound 0.04 µM); 1.08 in test [2] (first compound 0.1265 µM). The results for the relative viability in test [2] (first compound 0.4 µM), in test [2] (first compound 1.265 µM) and in test [2] (first compound 4 µM) were 0.965, 1.2 and 0.55, respectively.
UMC-11: the relative viability in the test with Salubrinal + Bortezomib (first compound 0.08 µM) was determined as 0.747; with Salubrinal + Bortezomib (first compound 0.253 µM) it was 0.462; with Salubrinal + Bortezomib (first compound 0.8 µM), 1.29; with Salubrinal + Bortezomib (first compound 2.53 µM), 0.904; with Salubrinal + Bortezomib (first compound 8 µM) it was 0.575; in test [1] (first compound 0.04 µM), 0.7. The relative viability in test [1] (first compound 0.1265 µM) was 0.57; in test [1] (first compound 0.4 µM) it was 0.6; in test [1] (first compound 1.265 µM) it was 0.646; in test [1] (first compound 4 µM), 0.481; in test [2] (first compound 0.04 µM), 0.818; in test [2] (first compound 0.1265 µM), 0.809. In addition, the figures for the relative viability in test [2] (first compound 0.4 µM), in test [2] (first compound 1.265 µM) and in test [2] (first compound 4 µM) were 0.667, 0.795 and 0.671, respectively.
